Drawing on patent US8933066B2, “Compounds for the treatment of hepatitis C” (priority 2011, dated 2015), this text covers EC50 for four molecules.

The assay has as its system HCV pseudoparticles (genotype 1a HCV E1 and E2 envelope, H77C isolate). Nature of the assay: HCV pseudoparticle infection assay (luciferase reporter, entry into Huh7 cells). Format: cell-based. Particulars: Hepatitis C virus, Huh-7, 48 h. Background: A reporter such as luciferase makes a cellular process visible.
Where [1] appears, read: read-out: Activity Range (EC50).

Where two headings read alike, the source gives them in different places.

One may read the EC50 as the concentration needed to bring the measured effect to its halfway point.

In the case of `FC(F)(F)COc1nc2nc(n1)Nc1cnn(c1)CCOCCOCCOc1ccc(cc1)CN2` [Example 2002], under setting [1], the half-maximal effective concentration (EC50) lay in the range of 0.1 to 500 nM.

Take `FC(F)(F)COc1nc2nc(n1)Nc1cnn(c1)CCNCCCOc1ccc(cc1)CN2` [Example 2006]: the concentration for a half-maximal effect (EC50) under setting [1] is 0.1 to 500 nM. Consider `CC(C)(C)NC(=O)N1CCCOc2ccc(cc2)CNc2nc(nc(OCC(F)(F)F)n2)Nc2cnn(c2)CC1` [Example 2007], for which the concentration giving a half-maximal response (EC50) amounted to 105 nM. Under setting [1], the EC50 fell in the range of 0.1 to 500 nM. Take `FC(F)(F)COc1nc2nc(n1)Nc1cnn(c1)CCCCCCOc1ccc(cc1)CN2` [Example 3001]: the concentration giving a half-maximal response (EC50) under setting [1] fell in the range of 0.1 to 500 nM.
